Source: patent US6261760A, “Regulation of the cell cycle by sterols” (priority 1999, dated 2001)
“Also recorded” adds a separate entry of the source. Like-named read-outs stand apart in the source and are kept apart here.

Columns and labels:
fibroblast monolayers [1] = test: FC efflux from fibroblast monolayers (3H-FC label); assay type: cell-based, human
Method: Fibroblast monolayers were equilibrated with ^3 H-FC-labeled native plasma or with isolated ^3 H-labeled LDL, as specified for each experiment. Following incubation, the dishes were washed with albumin-complete PBS and then (×4) with complete PBS. They were then incubated for 3 min with unlabeled plasma or lipoprotein fractions and the rate of appearance of radioactivity in the medium determined. Samples of medium ([…]) were immediately chilled in ice water and centrifuged (10 min, 2000×g) at 0-2° C. ^3 H-cholesterol radioactivity in the supernatant was either assayed directly, or fractionated by agarose gel electrophoresis. FC efflux was linear as previously reported (Kawano et al., Biochemistry, 32: 5025-5028 (1993)).
For electrophoresis, […] portions of labeled medium were added to strips of 0.75% w/v agarose in 0.025 M barbital buffer (pH 8.6) and separated as previously described (Fielding et al., Biochemistry, 30: 8551-8557 (1991)). 2.5 mm gel fractions were then collected, and radioactivity measured. The location of major lipoprotein classes was determined from strips run simultaneously with whole native plasma equilibrated (60 min, 37° C.) With ^3 HFC.
Rates of FC influx and efflux between medium and fibroblast monolayers preincubated for 24 h with 7-80% native human plasma in DMEM were determined. Cells equilibrated in 80% compared to 7% v/v plasma contained 35-40% more total cholesterol but only 10-15% more FC. In 50% v/v plasma, cholesteryl ester levels were lower than in 80% plasma but FC levels were almost the same. Rates of transfer of FC between the cells and their extracellular medium were determined for each plasma dilution. […] was measured as the rate of transfer of ^3 H-FC radioactivity from labeled native plasma to unlabeled cells. […] was determined as the rate of transfer of radioactivity from uniformly labeled cells to unlabeled native plasma medium.

fibroblast monolayers [2] = test: Cellular cholesterol mass (FC, EC, total); assay type: cell-based, human; conditions: +NEM 2 mM; increase over 120 min, 37° C.
Method: The FC and EC mass of cell monolayers was determined before and after incubation with lipoprotein as described above. Portions of the chloroform phase were analyzed for total and free cholesterol. Except where indicated each data point represents the mean of triplicate dishes. The coefficient of variation was <5% of means in these experiments.
120 min. at 37° C. Initial cell FC was […].

[3] = system: LDL FC uptake by fibroblast monolayers; test: Transfer of LDL-derived 3H-FC into fibroblast monolayers with metabolic inhibitors (Example 2); assay type: cell-based, human; conditions: brefeldin A, vinblastine, taxol, nocodazole; NEM 2 mM
[4] = system: intracellular FC transport to the cell surface in fibroblast monolayers; test: Transfer of intracellular 3H-FC to the cell surface (cholesterol oxidase); assay type: cell-based, human; conditions: in words
Method: This assay utilized the finding (see Example 1) that only FC in the caveolar fraction of the plasma membrane fraction was modified by cholesterol oxidase in unfixed fibroblast monolayers.
The rate at which intracellular LDL-derived ^3 H-FC became accessible at the cell surface was measured as follows. Cell monolayers were labeled with ^3 H-FC LDL under the conditions shown for each experiment. Unbound and adsorbed LDL were removed as described above. In some experiments metabolic inhibitors of different transport steps were then added for 30 min at 15° C. […] Cholesterol oxidase (Boehringer-Manheim, Indianapolis, Ind., USA) was added in PBS to a final concentration of 1 U ml^-1. Incubation was for 4 h at 0° C. The cells were washed with ice-cold PBS, and extracted with 0.1 N NAOH. Cell total lipid was extracted with chloroform-methanol (1:1 v/v). […] .
Fibroblast monolayers were prelabeled with FC-labeled LDL for 2 min at 31° C. Medium and surface-bound labeled LDL were removed as described above. The cells were incubated with inhibitors of intracellular transport for 30 min at 15° C. Movement of FC label to the cell surface remained negligible (FIG. 11). The cells were brought to 31° C. for 15 min, and then cooled on wet ice. ^3 H-FC transfer to the cell surface (in the presence and absence of inhibitor) was assayed with cholesterol oxidase as described above.

[5] = system: intracellular FC vesicle fractions of fibroblast monolayers; test: D2O-Ficoll density gradient fractionation of LDL-derived 3H-FC vesicles; assay type: cell-based, human; conditions: NEM 2 mM
Method: Early endosomal vesicles were labeled with LDL-derived ^3 H-FC by a modification of procedures described by Woodman & Warren (1991) J. Cell Biol., 112:1133-1141. Fibroblast monolayers in 10 cm dishes were washed in ice-cold PBS. The cells were labeled by incubation (2 h, 4° C.) with ^3 H-FC LDL. The monolayers were washed in PBS and brought to 31° C. for 0-15 min. The cells were then quickly chilled on ice, and cold unlabeled LDL was added (15 min, 4° C.) to displace any remaining surface-bound labeled LDL and all subsequent steps were carried out at 0-4° C.
Cells from three 10 cm dishes were used for each gradient. Monolayers were washed with 140 mM sucrose, 0.5 mM MgCl2, 1 mM EGTA, 20 mM 2-[N-morpholino]ethanesulfonic acid (MES), 70 mM potassium acetate, pH 6.6 (`vesicle buffer`) (Woodman & Warren, supra.). […] Fractions (~0.6 ml) were collected dropwise and the distribution of FC label determined. […] Solution density was determined gravimetrically using […] portions of each fraction. […]
The identity of intracellular transport intermediates and the extent of any cross-contamination between fractions was established using specific antibodies to protein markers, labeled ligands of receptor proteins, and assays of enzyme proteins. […] The distribution of antigen between different gradient fractions was determined with a computerized scanner (ImageQuant, Molecular Devices, Sunnyvale, Calif., USA).

vesicular transport = conditions: assays of vesicular transport in vitro; cited from earlier work
[6] = system: LDL FC uptake by fibroblast monolayers; test: Effects of metabolic inhibitors on uptake of 3H-cholesterol from LDL (Example 1)
[7] = system: LDL FC uptake by fibroblast monolayers; conditions: in words
caveolin mRNA [8] = conditions: literature; cited from earlier work
[9] = system: human hepatoblastoma (HepG2) cells; conditions: cited from earlier work
fibroblasts = conditions: fibroblast monolayers; cited from earlier work
caveolin promoter = test: Luciferase expression driven by caveolin promoter (pGL3); assay type: cell-based; conditions: Homo sapiens, Skin fibroblast, 3 h; 50 μM cholesterol α-epoxide, 80% v/v plasma; read-out: reduction of luciferase expression
From the text: The pGL3 luciferase vector (Promega, Madison, Wis.) was used for cloning purposes. A 705 bp Bgl II restriction fragment corresponding to -781 to -76 bp (relative to the translational start site) was isolated from the 4 kb genomic fragment described above. This was subcloned into the Bgl II site of the vector. The orientation of the insert was identified by restriction mapping and DNA sequencing.
Mutations of sequences within the promoter were created by deletional mutagenesis on single strand DNA, using the Sculptor mutagenesis kit (Amersham). On the basis of the caveolin gene promoter sequence, three oligonucleotides were designed: i) from -664 to -620 with bases -646 to -637 deleted; ii) from -412 to -363 with bases -395 to -386 deleted; and iii) from -302 to -262 with bases -287 to -278 deleted. These were used to generate the promoter mutants designated Δ1, Δ2 and Δ3 respectively.
Normal skin fibroblasts were plated at a density of 5-8×10^5 cells per 6 cm dish. These cells were transfected with 10 μg per dish of the wild type (705 bp) caveolin promoter fragment subcloned in the forward and reverse orientation in the luciferase expression vector pGL3. […] After 10-20 sec, luciferase activity was determined using an analytical luminometer (Monolight 2010, Analytical Luminescence Laboratories, San Diego, Calif.).

caveolin mRNA [10] = test: Caveolin mRNA levels (Northern blot); conditions: 80% v/v plasma + 50 μM cholesterol α-epoxide, 8 h with actinomycin, 37° C.

CCN1C(=O)C=CC1=O [N-ethylmaleimide]
Lipoprotein-resistant label (fibroblast monolayers [1]; +NEM 2 mM, proportion retained after 80% v/v plasma-PBS, 10 min, 37° C.): 0.24 ± 0.03
initial rate of efflux of FC from prelabeled cells to plasma (fibroblast monolayers [1]; in words, listed as NEM): increased rate of efflux; also recorded: increased several-fold
D total cholesterol (fibroblast monolayers [2]): 0.4 ± 0.2 Fg dish^-1
effect on uptake of 3H-FC from LDL [3]: blocks selective uptake of FC from LDL
effect on transport of intracellular 3H-FC to the cell surface [4]: inhibited the return of FC to the cell surface, but less effectively than did nocodazole
FC label with clathrin at d 1.12 g ml^-1 [5]: no peak of FC label was present with clathrin at d 1.12 g ml^-1
concentration for maximal inhibition (vesicular transport): 1 mM
inhibition of the uptake of free cholesterol from LDLs ([6]; FIG. 8): > 80%
time course of inhibition of LDL FC uptake ([6]; NEM: first 10-15 min, KNO3: 50 mM, data not shown): no effect
time to complete inhibition ([6]; cells prelabeled to equilibrium (24 h) with 3H-FC): ≤ 30 min
inhibition of the uptake of 3H-FC from LDL ([6]; preincubated 30 min with NEM, incubation beyond 10-15 min, FIG. 8): > 80%

CC(=O)[C@H]1CC[C@H]2[C@@H]3CCC4=CC(=O)CC[C@]4(C)[C@H]3CC[C@]12C [Progesterone]
effect on LDL FC uptake [7]: no effect
effect on caveolin mRNA levels (caveolin mRNA [8]): reduced equilibrium caveolin mRNA levels
effect on transfer of FC from plasma membrane to cell interior [9]: promoted the transfer of FC from the plasma membrane to the interior of the cell
transport of FC between the TGN and cell surface (fibroblasts): inhibited FC transport between the TGN and cell surface
effect on LDL FC uptake ([6]; in words): without effect

CC(C)CCC[C@@H](C)[C@H]1CC[C@H]2[C@@H]3CC4OC45C[C@@H](O)CC[C@]5(C)[C@H]3CC[C@]12C (stereo partly drawn) [cholesterol α-epoxide]
inhibition at 50 µM (caveolin promoter): 60%
caveolin mRNA level relative to total RNA (caveolin mRNA [10]): 0.47
